{
  "source": "patent US12448398B2",
  "about": "“Semi-synthetic analogues of epipolythiodioxopiperazine alkaloids” (Ohio State Innovation Foundation, priority 2019, dated 2025)",
  "key": {"[1]": {"system": "MDA-MB-435, MDA-MB-231 and OVCAR3 cells", "assay": "Cytotoxicity assay against a panel of three cancer cell lines (CellTiter 96 AQueous, 72 h)", "format": "cell-based, human", "details": "panel MDA-MB-435, MDA-MB-231, OVCAR3; relative to parent natural product", "procedure": "(§1) Human melanoma cancer cells (MDA-MB-435), human breast cancer cells (MDA-MB-231) and human ovarian cancer cells (OVCAR3) were obtained from the American Type Culture Collection (Manassas, VA). The cell lines were cultured in RPMI 1640 medium containing fetal 10% bovine serum, 100 unites/mL penicillin and 100 μg/mL streptomycin. The cells were grown at 37° C. under 5% CO2, and then harvested during the log-phase growth by trypsinization followed by two washing to remove all traces of enzymes. Cells were seeded in 96-well clear, flat-bottom plate (Microtest 96, Falcon) at a density of 5000 cells per well. Each plate was incubated overnight at 37° C. under 5% CO2. Samples dissolved in DMSO were diluted and added to the appropriate wells to give final concentrations of 20, 4, 0.8, 0.16, and 0.032 μM for pure compounds, and a total volume of 100 μL and 0.5% DMSO per well. The cells with the test samples were then incubated for 72 h at 37° C. Cell viability was examined using a commercial absorbance assay (CellTiter 96® AQueous One Solution Cell Proliferation Assay, Promega Corp, Madison, WI). IC50 values were determined as the concentration required to diminish cellular growth by 50% compared to the untreated controls after 72 h of continuous exposure. Taxol (Paclitaxel) was used as a positive control.\nHuman melanoma cancer cells (MDA-MB-435), human breast cancer cells (MDA-MB-231) and human ovarian cancer cells (OVCAR3) were produced from the American Type Culture Collection (Manassas, VA). RPMI 1640 medium (fetal 10% bovine serum, 100 unites/mL penicillin and 100 μg/mL streptomycin) was used to culture cell lines. The cells were grown at 37° C. under 5% CO2, then harvested during the log-phase growth by trypsinization followed by two washing to remove all traces of enzymes. 96-well clear, flat-bottom plate (Microtest 96, Falcon) was used to seed the cells at a density of 5000 cells per well. […] Cell viability was examined using a commercial absorbance assay (CellTiter 96® AQueous One Solution Cell Proliferation Assay, Promega Corp, Madison, WI). […]"}, "OVCAR3 cells": {"system": "OVCAR3 cells", "assay": "Cytotoxicity assay, human ovarian cancer cells", "format": "cell-based", "details": "vs verticillin H", "procedure": "as §1, with “The cells with the test samples were then incubated for 72 h at 37° C.” left out, “IC50 values were determined as the concentration required to diminish cellular growth by 50% compared to the untreated controls after 72 h of continuous exposure. Taxol (Paclitaxel) was used as a positive control.” left out\n(§2) Human melanoma cancer cells (MDA-MB-435), human breast cancer cells (MDA-MB-231) and human ovarian cancer cells (OVCAR3) were produced from the American Type Culture Collection (Manassas, VA). […] Cell viability was examined using a commercial absorbance assay (CellTiter 96® AQueous One Solution Cell Proliferation Assay, Promega Corp, Madison, WI). […]"}, "MDA-MB-231 cells": {"system": "MDA-MB-231 cells", "assay": "Cytotoxicity assay, human breast cancer cells", "format": "cell-based", "details": "vs verticillin H", "procedure": "as §1, with “The cells with the test samples were then incubated for 72 h at 37° C.” left out, “IC50 values were determined as the concentration required to diminish cellular growth by 50% compared to the untreated controls after 72 h of continuous exposure. Taxol (Paclitaxel) was used as a positive control.” left out\nas §2"}, "[2]": {"system": "panel of cancer cell lines", "details": "cited from earlier work"}, "[3]": {"system": "metastatic colon carcinoma", "details": "combined treatment of 3 and 5-fluorouracil; cited from earlier work"}, "[4]": {"system": "PANC02-H7 or UN-KC-6141 cells", "details": "combination of 3 and anti PD-L1; cited from earlier work"}, "MLL1": {"target": "MLL1 (Homo sapiens, UniProt Q03164)", "sequence (Q15291 whole entry)": "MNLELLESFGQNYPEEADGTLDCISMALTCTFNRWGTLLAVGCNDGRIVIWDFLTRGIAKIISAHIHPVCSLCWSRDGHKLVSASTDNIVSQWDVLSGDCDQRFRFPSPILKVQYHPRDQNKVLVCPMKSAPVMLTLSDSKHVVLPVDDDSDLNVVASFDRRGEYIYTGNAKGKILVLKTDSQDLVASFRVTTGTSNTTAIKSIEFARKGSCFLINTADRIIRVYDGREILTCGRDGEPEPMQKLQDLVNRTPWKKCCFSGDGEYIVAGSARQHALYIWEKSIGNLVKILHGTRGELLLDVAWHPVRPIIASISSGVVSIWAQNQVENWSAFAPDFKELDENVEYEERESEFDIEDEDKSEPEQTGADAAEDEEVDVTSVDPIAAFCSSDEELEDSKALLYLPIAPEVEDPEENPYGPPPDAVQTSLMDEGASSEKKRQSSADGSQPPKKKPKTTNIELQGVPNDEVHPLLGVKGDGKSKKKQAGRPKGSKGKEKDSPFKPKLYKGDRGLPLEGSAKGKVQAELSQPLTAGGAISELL", "sequence (Q9UBL3 96-628, further chain)": "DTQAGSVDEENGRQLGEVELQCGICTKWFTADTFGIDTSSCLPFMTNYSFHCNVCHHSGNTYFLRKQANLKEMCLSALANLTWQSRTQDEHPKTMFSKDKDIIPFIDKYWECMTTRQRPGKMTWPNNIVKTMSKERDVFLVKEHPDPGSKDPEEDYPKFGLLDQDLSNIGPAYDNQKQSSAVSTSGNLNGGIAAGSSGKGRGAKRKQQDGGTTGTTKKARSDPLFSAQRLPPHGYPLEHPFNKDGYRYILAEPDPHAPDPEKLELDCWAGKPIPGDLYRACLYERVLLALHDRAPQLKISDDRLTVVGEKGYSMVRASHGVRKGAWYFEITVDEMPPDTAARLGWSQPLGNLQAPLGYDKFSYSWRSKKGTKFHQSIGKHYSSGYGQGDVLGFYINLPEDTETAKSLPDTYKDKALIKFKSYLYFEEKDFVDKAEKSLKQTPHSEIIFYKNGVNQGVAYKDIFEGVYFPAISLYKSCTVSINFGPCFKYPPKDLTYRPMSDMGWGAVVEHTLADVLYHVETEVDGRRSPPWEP", "sequence (Q03164 3745-3969)": "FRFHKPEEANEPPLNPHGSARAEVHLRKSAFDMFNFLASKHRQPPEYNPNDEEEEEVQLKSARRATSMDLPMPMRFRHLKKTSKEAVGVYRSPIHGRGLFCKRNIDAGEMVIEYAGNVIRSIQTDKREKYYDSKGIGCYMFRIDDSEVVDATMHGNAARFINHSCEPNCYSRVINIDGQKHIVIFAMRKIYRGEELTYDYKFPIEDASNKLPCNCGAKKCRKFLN", "details": "in pancreatic cancer; cited from earlier work"}},
  "data": [
    {"compound": "CC[C@@]12SS[C@]3(C(=O)N1C)[C@@H](O)[C@]1([C@@]45c6ccccc6N[C@@H]4N4C(=O)[C@]6(CC)SS[C@]4(C(=O)N6C)[C@H]5OC(=O)C(C)(C)C)c4ccccc4N[C@@H]1N3C2=O", "note": "[Compound 14]", "values": [
      {"measurement": "Potency compared with the parent compound, in words", "setting": "[1]", "result": "more potent"}
    ]},
    {"compound": "CC[C@@]12SS[C@]3(C(=O)N1C)[C@@H](O)[C@]1([C@@]45c6ccccc6N[C@@H]4N4C(=O)[C@]6(CC)SS[C@]4(C(=O)N6C)[C@H]5OC(=O)N(C)C)c4ccccc4N[C@@H]1N3C2=O", "note": "[Compound 19]", "values": [
      {"measurement": "Fold increase of potency relative to parent compound", "setting": "OVCAR3 cells", "result": 12.0, "unit": "fold"}
    ]},
    {"compound": "CCOC(=O)O[C@H]1[C@]2([C@@]34c5ccccc5N[C@@H]3N3C(=O)[C@]5(CC)SS[C@]3(C(=O)N5C)[C@H]4O)c3ccccc3N[C@@H]2N2C(=O)[C@]3(CC)SS[C@]12C(=O)N3C", "note": "[Compound 16]", "values": [
      {"measurement": "Potency compared with the parent compound, in words", "setting": "[1]", "result": "more potent"},
      {"measurement": "Fold increase of potency relative to parent compound", "setting": "MDA-MB-231 cells", "result": 4.4, "unit": "fold"}
    ]},
    {"compound": "CCCC(=O)O[C@H]1[C@]2([C@@]34c5ccccc5N[C@@H]3N3C(=O)[C@]5(CC)SS[C@]3(C(=O)N5C)[C@H]4O)c3ccccc3N[C@@H]2N2C(=O)[C@]3(CC)SS[C@]12C(=O)N3C", "note": "[Compound 12]", "values": [
      {"measurement": "Potency compared with the parent compound, in words", "setting": "[1]", "result": "more potent"}
    ]},
    {"compound": "CN1C(=O)C23SSC1(C)C(=O)N2C1Nc2ccccc2C1(C12c4ccccc4NC1N1C(=O)C4(C)SSC1(C(=O)N4C)C2O)C3O", "note": "(centres unmarked) [Compound 3, verticillin A]", "values": [
      {"measurement": "Cytotoxicity level, in words", "setting": "[2]", "result": "nanomolar cytotoxicity"},
      {"measurement": "Tumor size compared to control", "setting": "[3]", "result": "significantly smaller tumors"},
      {"measurement": "Tumor size", "setting": "[4]", "result": "significantly smaller tumor size"},
      {"measurement": "IC50", "setting": "MLL1", "result": 800, "unit": "nM"}
    ]},
    {"compound": "CC[C@@]12SS[C@]3(C(=O)N1C)[C@@H](O)[C@]1([C@@]45c6ccccc6N[C@@H]4N4C(=O)[C@]6(CC)SS[C@]4(C(=O)N6C)[C@H]5OS(=O)(=O)c4ccc(F)cc4)c4ccccc4N[C@@H]1N3C2=O", "note": "[Compound 17]", "values": [
      {"measurement": "Fold loss of potency relative to parent compound", "setting": "MDA-MB-231 cells", "result": 1.6, "unit": "fold"},
      {"measurement": "Fold increase of potency relative to parent compound", "setting": "OVCAR3 cells", "result": 2.9, "unit": "fold"}
    ]}
  ]
}
